Measurements taken from paper PMC4113009, “Dihydroisoxazole inhibitors of Anopheles gambiae seminal transglutaminase AgTG3” (Malaria Journal, 2014).

How the values were obtained:
[1] = system: hTG2; conditions: cited from earlier work
[2] = target: AgTG3 (Anopheles gambiae, UniProt D2K8K8); assay: biochemical; conditions: 100 μM, triplicate
Description: Plugin-C (25 μg/well) was incubated in black 96-well Ni-coated plates (Pierce 15342) for 2 h at room temperature or overnight at 4°C. Plates were washed three times with 200 μL of TBS and loaded with 0.5 μg of AgTG3 in 50 μL TBS buffer. DHI inhibitors were added for 1 h to block the enzyme, followed by 50 μL of 2× assay buffer (2× TBS, 20 mM CaCl2, 100 μM FITC-CAD, 2 mM DTT). Wells were incubated for 60 min at room temperature, washed three times with 200 μL of TBS, and filled to a final volume of 100 μL for fluorescence measurements in a microplate reader (Biotek Synergy 2). The z-score was calculated based on the mean and standard deviation of three replicates of inhibitor compared to a DMSO control, zi=x¯DMSO-x¯i/σDMSO+σi .
The targeted chemical library was screened for inhibition of AgTG3 at 100 μM in a FITC-CAD plate assay (Figure 3A), performed in triplicate as previously described. Hit-calling was based on >67% decrease in fluorescence compared to DMSO and z > 5. Seven compounds fulfilled these criteria in the primary assay.
To verify the results of this preliminary assay, dose–response curves in the range of 0.5–100 μM were determined for 27 structurally related compounds within the targeted library (Additional file 3: Table S2 and Additional file 4: Table S3). […] Selected stereoisomers present in the targeted library were compared in equivalent dose–response assays. Inhibition of AgTG3 was specific for the (S)-DHI isomer of 1 (Figure 4A), the (R) isomer (4) displaying no activity (IC50 > 100 μM).

Chain of AgTG3 (D2K8K8 entry or part of it): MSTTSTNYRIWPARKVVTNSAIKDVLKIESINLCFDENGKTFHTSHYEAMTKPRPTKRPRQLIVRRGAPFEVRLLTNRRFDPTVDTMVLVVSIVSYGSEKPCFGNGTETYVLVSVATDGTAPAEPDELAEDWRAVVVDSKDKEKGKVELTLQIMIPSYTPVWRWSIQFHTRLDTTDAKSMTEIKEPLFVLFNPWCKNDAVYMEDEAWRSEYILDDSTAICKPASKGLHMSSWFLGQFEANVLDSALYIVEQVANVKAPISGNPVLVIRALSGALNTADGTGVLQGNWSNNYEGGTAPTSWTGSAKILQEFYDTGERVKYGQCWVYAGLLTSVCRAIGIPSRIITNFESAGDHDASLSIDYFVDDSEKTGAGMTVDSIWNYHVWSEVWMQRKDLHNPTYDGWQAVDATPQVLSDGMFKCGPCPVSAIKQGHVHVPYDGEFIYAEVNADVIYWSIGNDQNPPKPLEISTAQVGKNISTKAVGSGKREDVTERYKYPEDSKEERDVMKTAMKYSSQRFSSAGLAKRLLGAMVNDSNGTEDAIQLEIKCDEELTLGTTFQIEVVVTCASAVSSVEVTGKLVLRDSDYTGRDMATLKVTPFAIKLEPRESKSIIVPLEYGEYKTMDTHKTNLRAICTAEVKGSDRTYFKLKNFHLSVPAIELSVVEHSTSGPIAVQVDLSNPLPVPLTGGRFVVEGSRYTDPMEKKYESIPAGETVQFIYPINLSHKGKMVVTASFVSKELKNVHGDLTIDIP

In the case of `NNC(=O)CSc1nc2scc(-c3ccccc3)c2c(=O)n1-c1ccccc1` [LDN-27219, reference compound], the IC50 [1] is listed as under 10 µM, the “Inhibition of AgTG3 in primary screen” value [2] is listed as “neither the eight acylidene oxoindoles tested nor the thienopyrimidinone LDN-27219 inhibited AgTG3” and the “Inhibition of AgTG3 in primary screen” value ([2]; listed as LD-217912) is listed as “neither acylidene oxoindoles nor the thienopyrimidinone LD-217912 showed any inhibition”.
